Results published in ChEMBL document CHEMBL2406941, “Discovery of 'molecular switches' within a GIRK activator scaffold that afford selective GIRK inhibitors” (Bioorg Med Chem Lett, 2013).
pEC50: −log10 of the molar value.

Test: Activation of GIRK (unknown origin)
Parameters: species or system Homo sapiens

pEC50: < 4.00
SMILES: C[C@@H]1O[C@@H](O[C@H]2[C@H](Oc3cc(O)c4c(c3)O[C@H](c3ccc(O)cc3)CC4=O)O[C@H](CO)[C@@H](O)[C@@H]2O)[C@H](O)[C@H](O)[C@H]1O [NARINGIN]
